# Where “and” joins values, the source holds several entries; their conditions need not be identical. Identical values can stand only once. Where a SMILES comes first, the peptide text is derived from it.
# Tests used:
# [1] = tested on: the different tested pathogens; format: cell-based; settings: span over tested pathogens, undetected values disregarded
# Excerpt: (§1) The microbial strains used in this study were Bacillus subtilis (ATCC, 11774), Candida albicans (TIMM, 1768), Enterococcus faecalis (ATCC, 33186), Escherichia coli (ATCC, 11775), Klebsiella pneumoniae (ATCC, 13883), Methicillin-resistant Staphylococcus aureus (ATCC, BAA-41), Pseudomonas aeruginosa (ATCC, 10145), Salmonella enterica (ATCC, 14028), Serratia marcescens (ATCC, 13880), Staphylococcus aureus (ATCC, 25923) and Vibrio parahaemolyticus (ATCC, 17802). All microbial strains were cultivated overnight at 37 °C and 200 rpm, then subcultured and incubated for 3 h under the same incubation conditions to obtain the mid-logarithmic growth phase. The cultivated cells were washed twice with 10 mM Tris–HCl containing 5 mM D-glucose at pH 7.4 and suspended in the same buffer to be used in different assays, as previously described.
# As a conclusive quantitative assessment, broth microtiter assay was used to determine the MIC values of each cryptide against B. subtilis, MRSA, S. enterica, P. aeruginosa, V. parahaemolyticus and C. albicans by following the guidelines of the Clinical and Laboratory Standards Institute (CLSI)[67], with slight modifications. Eighty microliters of 5 × 10^4 CFU/ml of each pathogen were dispensed into a 96-well polypropylene microtiter plate. The wells were then treated with 20 µl of serially diluted cryptides for 3 h at 37 °C. Gentamicin was used for positive controls at 0.2 mg/ml while an equivalent volume of acidified water was used for negative controls. The plates were then topped up with a final concentration of 1 × Mueller Hinton Broth (MHB) and incubated for 18 h under the same incubation conditions. MIC was detected as the lowest concentration of each cryptide that prevents the optically detectable microbial growth at OD = 600 nm.
# [2] = tested on: P. aeruginosa; test: Radial diffusion assay; format: cell-based, Pseudomonas aeruginosa (ATCC, 10145); settings: 5 µl of 500 µM per 3 mm well, 37 °C, mean ± SD
# Excerpt: as §1
# (§2) The antimicrobial activity spectra of the selected cryptides were screened against all the mentioned microbial pathogens, except V. parahaemolyticus, by radial diffusion assay as previously described, with slight modifications. […] The plates were then incubated for 18 h, and the antimicrobial activities were measured in the absolute unit (AU), as previously described. […]
# (§3) plate. The plates were then incubated for 12 h at 37 °C and antimicrobial activities were measured in the term of absolute unit (A.U). […]
# [3] = tested on: MRSA mature biofilm; test: Antibiofilm microtiter plate assay (mature biofilm, crystal violet); format: cell-based, Methicillin-resistant Staphylococcus aureus (ATCC, BAA-41); settings: absorbance 600 nm, mean ± SD
# Method: The antibiofilm activities of the selected cryptides against S. enterica and MRSA mature biofilms were examined by microtiter plate assay as previously described, with slight modification. During the mid-logarithmic phase, S. enterica and MRSA were suspended at the density of 1.7 × 10^8 CFU/ml in MHB. Then 100 µl of each bacterial suspension was dispensed into a vinyl 96 U-shaped-well plate and incubated overnight at 37 °C. The mature biofilms were washed with 10 mM Tris–HCl containing 5 mM D-glucose at pH 7.4 and treated for 8 h with 100 µl of two-fold serially diluted cryptides, under the same incubation conditions. A sterile MHB medium was used as the positive control while an equivalent volume of acidified water was used to treat the negative controls. The treated biofilms were washed twice with the same washing buffer and stained with 0.1% crystal violet for 15 min followed by rinsing with sterile distilled water twice and then dried for 30 min at 37 °C. The stain was dissolved with 33% acetic acid and transferred to an optically clear 96-well flat bottom plate which was then measured at 600 nm.
# Table S.4 Antibiofilm activities of the selected Cryptides against S. enterica and MRSA. Microbial cells were suspended at 1.7 X 10^8 CFU/ml density, during the mid-logarithmic phase in MHB. Then, 96 U-shaped -well plates were inoculated with 100 µl of microbial suspension and incubated for 48 h at 37 °C. The formed biofilms were washed with 10 mM Tris-HCl and treated with 100 µl of different concentrations of each peptide for 24 h. The treated biomasses were washed and fixed with methanol for 15 min at -20 °C before staining with 0.1 % crystal violet. The stained biofilms were dissolved in 100 µl of 33 % acetic acid and the quantities of crystal violet stains were determined by measuring absorbance at 600 nm as an indicator of the remaining biomass after treatment. Untreated cells were used as negative control [indicating 100 % biofilm integrity] while the sterile medium was used as a positive control [indicating 0 % biofilm integrity].
# S. enterica MRSA S. enterica MRSA S. enterica MRSA S. enterica MRSA S. enterica MRSA
# [4] = tested on: E. coli K-1; test: Radial diffusion assay; format: cell-based, Escherichia coli (ATCC, 11775); settings: 5 µl of 500 µM per 3 mm well, 37 °C, mean ± SD
# Excerpt: as §1, §2, §3
# [5] = tested on: B. subtilis; test: Radial diffusion assay; format: cell-based, Bacillus subtilis (ATCC, 11774); settings: 5 µl of 500 µM per 3 mm well, 37 °C, mean ± SD
# Excerpt: as §1, §2, §3
# [6] = tested on: E. faecalis; test: Radial diffusion assay; format: cell-based, Enterococcus faecalis (ATCC, 33186); settings: 5 µl of 500 µM per 3 mm well, 37 °C, mean ± SD
# Excerpt: as §1, §2, §3
# [7] = tested on: K. pneumoniae; test: Radial diffusion assay; format: cell-based, Klebsiella pneumoniae (ATCC, 13883); settings: 5 µl of 500 µM per 3 mm well, 37 °C, mean ± SD
# Excerpt: as §1, §2, §3
# [8] = tested on: S. epidermidis; test: Radial diffusion assay; format: cell-based; settings: 5 µl of 500 µM per 3 mm well, 37 °C, mean ± SD
# Excerpt: The antimicrobial activity spectra of the selected cryptides were screened against all the mentioned microbial pathogens, except V. parahaemolyticus, by radial diffusion assay as previously described, with slight modifications. We aimed to test different categories of pathogens on the WHO global priority due to their growing resistance to the available antibiotics such as P. aeruginosa, E. coli and K. pneumoniae in the critical category and Salmonella ssp. and S. aureus in the high category. Briefly, a total of 4 × 10^6 CFU of each pathogen was inoculated in 10 mL of an underlay agarose gel [0.03% w/v tryptone soy broth (TSB) medium, 1% w/v agarose and 0.02% v/v Tween 20 in 10 mM Tris–HCl] that was then poured into a 100-mm petri dish. After agarose solidification, 3 mm-diameter wells were punched by a sterile cork borer and 5 µl of 500 µM stock solution from each cryptide was added to each well. Melittin and acidified water were used as positive and negative controls, respectively. […] The plates were then incubated for 18 h, and the antimicrobial activities were measured in the absolute unit (AU), as previously described. […]
# as §3
# [9] = tested on: MRSA; test: Radial diffusion assay; format: cell-based, Methicillin-resistant Staphylococcus aureus (ATCC, BAA-41); settings: 5 µl of 500 µM per 3 mm well, 37 °C, mean ± SD
# Excerpt: as §1, §2, §3
# [10] = tested on: S. aureus; test: Radial diffusion assay; format: cell-based, Staphylococcus aureus (ATCC, 25923); settings: 5 µl of 500 µM per 3 mm well, 37 °C, mean ± SD
# Excerpt: as §1, §2, §3
Compound,"MBC values, range against the different tested pathogens [1]","MIC values, range against the different tested pathogens [1]",Antimicrobial activity (inhibition zone) P. aeruginosa [2],"Biofilm eradication MRSA, 12.5 µM [3]","Biofilm eradication MRSA, 25 µM [3]","Biofilm eradication MRSA, 50 µM [3]","Biofilm eradication MRSA, 100 µM [3]","Biofilm eradication MRSA, 200 µM [3]",Antimicrobial activity (inhibition zone) E. coli K-1 [4],Antimicrobial activity (inhibition zone) B. subtilis [5],Antimicrobial activity (inhibition zone) E. faecalis [6],Antimicrobial activity (inhibition zone) K. pneumoniae [7],Antimicrobial activity (inhibition zone) S. epidermidis [8],Antimicrobial activity (inhibition zone) MRSA [9],Antimicrobial activity (inhibition zone) S. aureus [10]
CC(C)C[C@H](NC(=O)[C@H](CCCNC(=N)N)NC(=O)[C@H](Cc1c[nH]c2ccccc12)NC(=O)[C@H](CCCNC(=N)N)NC(=O)[C@H](CC(C)C)NC(=O)[C@@H](N)Cc1ccccc1)C(=O)N[C@@H](CCCCN)C(=O)N[C@@H](Cc1ccccc1)C(=O)N[C@@H](CCCCN)C(=O)N[C@@H](CO)C(=O)N[C@@H](CCCCN)C(=O)N[C@H](C(=O)N[C@@H](Cc1c[nH]c2ccccc12)C(=O)N[C@@H](CS)C(=O)N1CCC[C@H]1C(=O)O)C(C)C [AD7] (H-FLRWRLKFKSKVWCP-OH),0.39 ~ 25 µM,0.39 ~ 6.25 µM,,,,,,,,,,,,,
"RHCLRSKRPPNVCPH [AD4, cationic cryptide from P. vannamei precursor DN34505 (Pl-crustin 2), chemically synthesised]",,,0 A.U.,0%,0.86 ± 3.1%,11.53 ±1.4%,27.05 ±1.3%,35.86 ± 2.5% and 35.8%,7.7 ± 1 A.U.,13.8± 0.7 A.U.,14.7 ± 1.2 A.U.,0 A.U.,9 ± 0 A.U.,12.2 ± 1.1 A.U.,24.4 ± 0.9 A.U.

# From paper PMC10482825 (Scientific Reports, 2023)
